Measurements as given in patent US20220409590A1, “CHEMOTHERAPY FOR GLIOMA THROUGH NEURONAL CONVERSION” (The Penn State Research Foundation, priority 2019, published 2022).

Test system: U251 cells
Assay: Reprogramming of U251 cells; doublecortin immunostaining
Assay type: cell-based, human
Experimental: U251 cells were maintained in minimal essential media (MEM) supplemented with 2 mM glutamine, 1% non-essential amino acids, 1 mM sodium pyruvate, and 10% fetal bovine serum. Fifty thousand cells were seeded on to coverslips into 24-well plates. After 4 days in MEM, the cells were treated with the compound cocktail or dimethyl sulfoxide for another 4 days in Ham's F-12 (F-12) media supplemented with N2, B27 and insulin. The five-compound cocktail, referred to as described above as SLCDS, contained 5 μM SB431542, 0.25 μM LDN193189, 5 μM CHIR99021, 5 μM DAPT, and 40 μM SKL2001. After SLCDS treatment, F-12 media was changed every 4 days for 12 days. Cells were then crosslinked with 4% paraformaldehyde for 12 minutes and washed with Tris buffered saline (TBS). After three 5-minute washes, cells were blocked with 2.5% bovine serum albumin in Tris-buffered saline (TBS) with 0.1% Triton X-100 (TBSTx) for 1 hour. Primary antibody (goat Doublecortin, 1:500 dilution, sc-8066, Santa Cruz) were incubated with fixed cells overnight at 4° C. After three 5-minute washes, the secondary antibody (anti-goat Cy5, 1:1000) was incubated with fixed cells overnight at 4° C. After three 5-minute washes, the cover slip was mounted using mounting media. The fluorescent signal was detected using an ECHO Revolve microscope.

## O=C(NCCCn1ccnc1)c1cc(-c2ccco2)on1 [SKL2001]
SKL2001 in combination with SB431542, LDN193189, CHIR99021 and DAPT in U251 cells, FIG. 2
  dose response of doublecortin expression: dose-response relationship is established
As evidenced by doublecortin expression
  conversion of U251 glioblastoma cells to neuronal cells: efficient conversion
